Experimental data published in ChEMBL document CHEMBL1201862, “PubChem BioAssay data set” (2004).
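The compound was tested at five concentrations on cells cultured in 96-well plates, with a 48-hour exposure period. Here, GI50 denotes the concentration required for 50% inhibition of growth.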 Active and inactive are the calls of the source. Rule as the data show it: active = GI50 up to about 1.1 µM and inactive = higher.

Assays:
Experiment in all cases: inhibition of tumour cell growth, NCI panel, 48 h
UACC-257 = tested on: UACC-257
MDA-MB-231 = tested on: MDA-MB-231
BT-549 = tested on: BT-549
MDA-N = tested on: MDA-N
EKVX = tested on: EKVX
MCF7 = tested on: MCF7
Hs-578T = tested on: Hs-578T
SR = tested on: SR
CAKI-1 = tested on: CAKI-1
SF-295 = tested on: SF-295
U-251 = tested on: U-251
DU-145 = tested on: DU-145
NCI/ADR-RES = tested on: NCI/ADR-RES
HCC 2998 = tested on: HCC 2998
HT-29 = tested on: HT-29
TK-10 = tested on: TK-10
K562 = tested on: K562
PC-3 = tested on: PC-3
MDA-MB-435 = tested on: MDA-MB-435
COLO 205 = tested on: COLO 205
RXF 393 = tested on: RXF 393
SF-268 = tested on: SF-268
T47D = tested on: T47D
HOP-92 = tested on: HOP-92
M14 = tested on: M14
UO-31 = tested on: UO-31
SW-620 = tested on: SW-620
HOP-62 = tested on: HOP-62
OVCAR-8 = tested on: OVCAR-8
KM12 = tested on: KM12
NCI-H226 = tested on: NCI-H226
SN12C = tested on: SN12C
IGROV-1 = tested on: IGROV-1
SK-MEL-2 = tested on: SK-MEL-2
SK-OV-3 = tested on: SK-OV-3
HCT-15 = tested on: HCT-15
A549 = tested on: A549
SK-MEL-5 = tested on: SK-MEL-5
Malme-3M = tested on: Malme-3M
SNB-19 = tested on: SNB-19
SNB-75 = tested on: SNB-75
NCI-H522 = tested on: NCI-H522
NCI-H23 = tested on: NCI-H23
OVCAR-3 = tested on: OVCAR-3
786-0 = tested on: 786-0
SK-MEL-28 = tested on: SK-MEL-28
NCI-H460 = tested on: NCI-H460
RPMI-8226 = tested on: RPMI-8226
UACC-62 = tested on: UACC-62
OVCAR-5 = tested on: OVCAR-5
ACHN = tested on: ACHN
SF-539 = tested on: SF-539
LOX IMVI = tested on: LOX IMVI
HCT-116 = tested on: HCT-116
OVCAR-4 = tested on: OVCAR-4
CCRF-CEM = tested on: CCRF-CEM
A498 = tested on: A498
MOLT-4 = tested on: MOLT-4

N=C(N)SCCc1ccccn1
GI50 (UACC-257): > 100 µM (inactive) | GI50 (MDA-MB-231): 55.2 µM (inactive) | GI50 (BT-549): > 100 µM (inactive) | GI50 (MDA-N): > 100 µM (inactive) | GI50 (EKVX): 89.3 µM (inactive) | GI50 (MCF7): > 100 µM (inactive) | GI50 (Hs-578T): > 100 µM (inactive) | GI50 (SR): > 100 µM (inactive) | GI50 (CAKI-1): > 100 µM (inactive) | GI50 (SF-295): > 100 µM (inactive) | GI50 (U-251): 51.2 µM (inactive) | GI50 (DU-145): > 100 µM (inactive) | GI50 (NCI/ADR-RES): > 100 µM (inactive) | GI50 (HCC 2998): > 100 µM (inactive) | GI50 (HT-29): > 100 µM (inactive) | GI50 (TK-10): > 100 µM (inactive) | GI50 (K562): > 100 µM (inactive) | GI50 (PC-3): > 100 µM (inactive) | GI50 (MDA-MB-435): > 100 µM (inactive)

O=C(NC(CCCCN1C(=O)c2ccccc2C1=O)P(=O)(Oc1ccccc1)Oc1ccccc1)OCc1ccccc1 (stereo not given)
GI50 (UACC-257): > 100 µM (inactive) | GI50 (COLO 205): > 100 µM (inactive) | GI50 (RXF 393): > 100 µM (inactive) | GI50 (BT-549): > 100 µM (inactive) | GI50 (SF-268): > 100 µM (inactive) | GI50 (MDA-N): > 100 µM (inactive) | GI50 (T47D): > 100 µM (inactive) | GI50 (HOP-92): > 100 µM (inactive) | GI50 (M14): > 100 µM (inactive) | GI50 (UO-31): > 100 µM (inactive) | GI50 (EKVX): > 100 µM (inactive) | GI50 (SW-620): > 100 µM (inactive) | GI50 (HOP-62): 71.8 µM (inactive) | GI50 (OVCAR-8): > 100 µM (inactive) | GI50 (KM12): > 100 µM (inactive) | GI50 (NCI-H226): > 100 µM (inactive) | GI50 (MCF7): > 100 µM (inactive) | GI50 (SN12C): > 100 µM (inactive) | GI50 (IGROV-1): > 100 µM (inactive) | GI50 (SK-MEL-2): > 100 µM (inactive) | GI50 (SK-OV-3): > 100 µM (inactive) | GI50 (HCT-15): > 10 µM | GI50 (A549): > 100 µM (inactive) | GI50 (SK-MEL-5): > 100 µM (inactive) | GI50 (Hs-578T): > 100 µM (inactive) | GI50 (Malme-3M): > 100 µM (inactive) | GI50 (SNB-19): > 100 µM (inactive) | GI50 (SNB-75): 0.01 µM (active) | GI50 (SR): > 100 µM (inactive) | GI50 (CAKI-1): > 100 µM (inactive) | GI50 (NCI-H522): 75 µM (inactive) | GI50 (NCI-H23): 7.33 µM (inactive) | GI50 (SF-295): > 100 µM (inactive) | GI50 (U-251): > 100 µM (inactive) | GI50 (DU-145): > 100 µM (inactive) | GI50 (OVCAR-3): > 100 µM (inactive) | GI50 (786-0): > 100 µM (inactive) | GI50 (NCI/ADR-RES): > 100 µM (inactive) | GI50 (SK-MEL-28): > 100 µM (inactive) | GI50 (HCC 2998): > 100 µM (inactive) | GI50 (HT-29): > 100 µM (inactive) | GI50 (TK-10): > 100 µM (inactive) | GI50 (NCI-H460): > 100 µM (inactive) | GI50 (RPMI-8226): > 100 µM (inactive) | GI50 (UACC-62): > 100 µM (inactive) | GI50 (OVCAR-5): > 100 µM (inactive) | GI50 (ACHN): > 100 µM (inactive) | GI50 (PC-3): > 100 µM (inactive) | GI50 (MDA-MB-435): > 100 µM (inactive) | GI50 (SF-539): > 100 µM (inactive)

O=C1C2CCCCC2C(=O)N1n1c(Cc2ccc(Cl)cc2)n[nH]c1=O (stereo not given)
GI50 (UACC-257): > 100 µM (inactive) | GI50 (COLO 205): > 100 µM (inactive) | GI50 (MDA-MB-231): > 100 µM (inactive) | GI50 (RXF 393): > 100 µM (inactive) | GI50 (LOX IMVI): > 100 µM (inactive) | GI50 (BT-549): > 100 µM (inactive) | GI50 (SF-268): > 100 µM (inactive) | GI50 (MDA-N): > 100 µM (inactive) | GI50 (T47D): > 100 µM (inactive) | GI50 (HOP-92): > 100 µM (inactive) | GI50 (M14): > 100 µM (inactive) | GI50 (HCT-116): > 100 µM (inactive) | GI50 (UO-31): > 100 µM (inactive) | GI50 (EKVX): > 100 µM (inactive) | GI50 (SW-620): > 100 µM (inactive) | GI50 (HOP-62): > 100 µM (inactive) | GI50 (OVCAR-4): > 100 µM (inactive) | GI50 (OVCAR-8): > 100 µM (inactive) | GI50 (KM12): > 100 µM (inactive) | GI50 (NCI-H226): > 100 µM (inactive) | GI50 (MCF7): > 100 µM (inactive) | GI50 (CCRF-CEM): > 100 µM (inactive) | GI50 (SN12C): > 100 µM (inactive) | GI50 (IGROV-1): > 100 µM (inactive) | GI50 (SK-MEL-2): > 100 µM (inactive) | GI50 (SK-OV-3): > 100 µM (inactive) | GI50 (HCT-15): > 100 µM | GI50 (A549): > 100 µM (inactive) | GI50 (SK-MEL-5): > 100 µM (inactive) | GI50 (Hs-578T): > 100 µM (inactive) | GI50 (Malme-3M): > 100 µM (inactive) | GI50 (SNB-19): > 100 µM (inactive) | GI50 (SNB-75): > 100 µM (inactive) | GI50 (SR): > 100 µM (inactive) | GI50 (CAKI-1): > 100 µM (inactive) | GI50 (NCI-H522): > 100 µM (inactive) | GI50 (NCI-H23): > 100 µM (inactive) | GI50 (SF-295): > 100 µM (inactive) | GI50 (U-251): > 100 µM (inactive) | GI50 (OVCAR-3): > 100 µM (inactive) | GI50 (A498): > 100 µM (inactive) | GI50 (786-0): > 100 µM (inactive) | GI50 (NCI/ADR-RES): > 100 µM (inactive) | GI50 (HCC 2998): > 100 µM (inactive) | GI50 (HT-29): > 100 µM (inactive) | GI50 (TK-10): > 100 µM (inactive) | GI50 (NCI-H460): > 100 µM (inactive) | GI50 (RPMI-8226): > 100 µM (inactive) | GI50 (UACC-62): > 100 µM (inactive) | GI50 (K562): > 100 µM (inactive) | GI50 (OVCAR-5): > 100 µM (inactive) | GI50 (MOLT-4): > 100 µM (inactive) | GI50 (ACHN): > 100 µM (inactive) | GI50 (PC-3): > 100 µM (inactive) | GI50 (MDA-MB-435): > 100 µM (inactive) | GI50 (SF-539): > 100 µM (inactive)
